In US12318359B2, “Combination methods and compositions including sleep therapeutics for treating mood” (priority 2012, dated 2025):

Test system: depression
Assay: Beck Depression Inventory II score, case study of a depressed patient
Format: in vivo, human
Conditions: person; after three months of fluoxetine monotherapy (20 mg daily raised to 60 mg daily); score at first visit 28
Text: “Depression symptoms rating scale” refers to any one of a number of standardized questionnaires, clinical instruments, or symptom inventories utilized to measure symptoms and symptom severity in depression. Such rating scales are often used in clinical studies to define treatment outcomes, based on changes from the study's entry point(s) to endpoint(s). Such depression symptoms rating scales include, but are not limited to, The Quick Inventory of Depressive-Symptomatology Self-Report (QIDS-SR16), the 17-Item Hamilton Rating Scale of Depression (HRSD17), the 30-Item Inventory of Depressive Symptomatology (IDS-C30), or The Montgomery-Asperg Depression Rating Scale (MADRS) and […] Depression Inventory II. Such ratings scales may involve patient self-report or be clinician rated. A 50% or greater reduction in a depression ratings scale score over the course of a clinical trial (starting point to endpoint) is typically considered a favorable response for most depression symptoms rating scales. “Remission” in clinical studies of depression often refers to achieving at, or below, a particular numerical rating score on a depression symptoms rating scale, i.e., less than or equal to 7 on the HRSD17; or less than or equal to 5 on the QIDS-SR16; or less than or equal to 10 on the MADRS or less than or equal to 9 on the Beck Depression Inventory II. […]

## CNCCC(Oc1ccc(C(F)(F)F)cc1)c1ccccc1 (stereo not shown) [fluoxetine]
  Beck Depression Inventory II score: 26
